# Assay results from patent US20050204407A1, “Methods for identifying and developing compounds that interact with voltage-gated potassium channels of the kv4 family” (priority 2002, published 2005).
# Assays:
# [1] = tested on: hKv4.3 expressing C. elegans strain UG 1598; test: Pharynx pumping rate of hKv4.3 expressing pha-1 strain UG 1598; type: in vivo
# Procedure: The influence of 4-aminopyridine, a known general antagonist of voltage-gated potassium channel, on the pharynx pumping rate of the hKv4.3 expressing C. elegans strain UG 1598 (Example III) was determined as follows.
# (§1) The nematodes were cultivated to L4 stage on an agar plate, and then kept overnight at 20° C. to reach the adult stage. The worms where then transferred to agar plates containing 0,5 mM 4-aminopyridine in DMSO. After 3 hours at 20° C., the number of pharynx “pumps” (contractions) per 30 seconds were determined visually using a stopwatch. As a comparison, the influence of 4-aminopyridine on an N2 background was also determined, in essentially the same manner.
# N2 background = test: Pharynx pumping rate of N2 background (comparison); type: in vivo, C. elegans; details: 0,5 mM, 3 hours at 20° C., FIG. 4
# Procedure: as §1
# [2] = tested on: hKv4.3 expressing C. elegans strain UG 1611; test: Pharynx pumping rate of hKv4.3 expressing exp-2 strain UG 1611; type: in vivo; parameters: Change observed (pharynx pumping rate): dose or concentration left out as unconfirmed
# Procedure: The influence of 4-aminopyridine, a known general antagonist of voltage-gated potassium channel, on the pharynx pumping rate of the hKv4.3 expressing C. elegans strain UG 1611 (Example IV) was determined as follows.
# The nematodes were cultivated to L4 stage on an agar plate, and then kept overnight at 20° C. to reach the adult stage. […] After 3 hours at 20° C., the number of pharynx “pumps” (contractions) per 30 seconds were determined visually using a stopwatch. As a comparison, the influence of 4-aminopyridine on the original exp-2 background was also determined, in essentially the same manner.
# exp-2 background [3] = test: Pharynx pumping rate of original exp-2 background (comparison); type: in vivo, C. elegans; details: 2 mM, 3 hours at 20° C., FIG. 5
# Procedure: The nematodes were cultivated to L4 stage on an agar plate, and then kept overnight at 20° C. to reach the adult stage. The worms where then transferred to agar plates containing 2 mM 4-aminopyridine in DMSO. After 3 hours at 20° C., the number of pharynx “pumps” (contractions) per 30 seconds were determined visually using a stopwatch. As a comparison, the influence of 4-aminopyridine on the original exp-2 background was also determined, in essentially the same manner.
# unc-119; hKv4.3 = test: Pharynx pumping rate of unc-119; hKv4.3 nematode; type: in vivo, C. elegans; details: 500 mM, 3 hrs
# [4] = tested on: hKv4.3 expressing C. elegans strain UG 1611; test: Drinking assay (uptake of Calcein AM) in hKv4.3 expressing exp-2 strain UG 1611; type: in vivo; details: 0.3 mM, exp-2 without compound = 100%, UG 1611 without compound 114%
# Source text: (§2) The hKv4.3 expressing C. elegans strain UG 1611 (Example IV) was investigated for drinking behaviour by determining the uptake over time of the fluorescent dye Calcein AM, essentially as described in Examples 2 and 3 of the International application PCT/IB00/00575 by Applicant, using 96 well plates containing 100 nematodes/well. As a comparison, the exp-2(sa26as1426)V background was used.
# (§3) The influence of mM 4-aminopyridine, a known general antagonist of voltage-gated potassium channel, on drinking behaviour of the hKv4.3 expressing C. elegans strain UG 1611 (Example IV) was determined by measuring the uptake of the fluorescent dye Calcein AM with and without the presence of 0.3 mM 4aminopyridine, essentially as described in Examples 2 and 3 of the International application PCT/IB00/00575 by Applicant.
# exp-2 background [5] = test: Drinking assay (uptake of Calcein AM) in exp-2 background; type: in vivo, C. elegans; details: 0.3 mM, exp-2 without compound = 100%
# Source text: as §2, §3
# [6] = tested on: hKv4.3-expressing pha-1 strain UG 1598; test: Electropharyngeogram (EPG) of hKv4.3-expressing pha-1 strain UG 1598; type: in vivo, C. elegans; details: 215 mM
# Procedure: An electropharyngeogram of the human Kv4.3 expressing strain UG 1547 was recorded using an Axopatch-1D amplifier (Axon instruments), essentially as described by Raizen and Avery, supra, and is shown in FIG. 1. For comparison, reference is made to the EPG's for wild-type and exp-2 shown by Davis, Dent and Avery, Worm Breeders Gazette 14(4); 72 (1996), as well as the EPG's for wild-type shown in Raizen and Avery.
# The influence of 4-aminopyridine on the EPG of a hKv4.3-expressing strain was studied using the hKv4.3-expressing pha-1 strain UG 1598 of Example III. As mentioned in Example VI, exposing this strain UG 1598 to 4-aminopyridine leads to a reduction of pharynx pumping.
# The EPG's for UG 1598 (using 4 pharynxes) were recorded essentially as described in Example XII. The EPG's of UG 1598 without 4-aminopyridine were recorded during a period of 5 minutes, upon which the pharynxes were exposed to 215 mM 4-aminopyridine, and the EPG's were further recorded during a 5 minute period. The EPG's with and without the presence of 4-aminopyridine were then compared with each other and to the EPG for wild-type (see the references mentioned in Example XII).
# The number of “Kv4.3-like” AP's and the number of “normal” AP's during the 5 minute recording period were determined/counted from the recorded EPG's.
# After exposure to the 4-aminopyridine, the number of “Kv4.3-like” AP's and the number of “normal” AP's during the 5 minute recording period were again determined/counted from the EPG recording.
# [7] = UG 1598, compared to UG1598 without compound
structure (smiles),measurement,setting,value
Nc1ccncc1 [4-aminopyridine],Change observed (pharynx pumping rate),"[1]; pha-1, hKv4.3, 0,5 mM, 3 hrs",increase in
same,Influence on pharynx pumping rate (pumps per 30 seconds),"[1]; strain UG 1598, 0,5 mM in agar plates, 3 hours at 20° C., FIG. 4",increases
same,Pharynx pumping (as restated in Example XIII),"[1]; strain UG 1598, refers to Example VI",reduction
same,Influence on pharynx pumping rate (pumps per 30 seconds),N2 background,very little influence
same,Change observed (pharynx pumping rate),"[2]; exp-2, hKv4.3, 3 hrs",(small) decrease
same,Influence on pharynx pumping rate (pumps per 30 seconds),"[2]; strain UG 1611, 2 mM in agar plates, 3 hours at 20° C., FIG. 5",decreases
same,Influence on pharynx pumping rate (pumps per 30 seconds),exp-2 background [3],very little influence
same,Change observed (pharynx pumping rate),unc-119; hKv4.3,increase in
same,Uptake of fluorescent marker Calcein AM (drinking),[4],109%
same,Uptake of fluorescent marker Calcein AM (drinking),exp-2 background [5],103%
same,"Number of ""normal"" APs during the 5 minute recording period","[6]; UG 1598, 4 pharynxes, before adding 14+/−12, P<0.0161",64+/−9
same,"Relative number of ""Kv4.3 like"" AP's in EPG",[6]; [7],significant decrease
same,"Relative number of ""normal"" AP's in EPG",[6]; [7],corresponding increase
